O=C(O)COc1ccc(Cl)cc1Cl
solubility (mole fraction)
Settings | in tetrachloromethane | in toluene
294.15 K | – | 0.00118
298.65 K | – | 0.00178
303.15 K | – | 0.00264
303.65 K | 4.99e-05 | –
308.45 K | – | 0.00399
310.65 K | 0.000131 | –
313.25 K | – | 0.00547
313.55 K | 0.000193 | –
318.75 K | 0.000414 | 0.00821
323.05 K | 0.00074 | –
323.15 K | – | 0.0109
328.25 K | 0.00146 | –
328.85 K | – | 0.015
332.95 K | 0.00259 | –
335.35 K | – | 0.0207
338.05 K | 0.00497 | 0.0235

From BigSolDB 2.1
